Data as given in paper PMC6222789, “CF3-Substituted Mollugin 2-(4-Morpholinyl)-ethyl ester as a Potential Anti-inflammatory Agent with Improved Aqueous Solubility and Metabolic Stability” (Molecules : A Journal of Synthetic Chemistry and Natural …, 2018).

Experiments:
[1] = Plasma stability, rat plasma; assay type: in vitro ADME; details: 2 h, 37 °C, 1 μM
Experimental: The plasma stability assay was performed by incubation of human or rat plasma with a test compound in a final concentration of 1 μM for 120 min at 37 °C. The incubation was terminated by addition of 40 μL of ice-cold acetonitrile and vortexing for 5 min. The precipitated proteins were removed by centrifugation at 14,000× g for 5 min at 4 °C. Aliquots of the supernatant were injected onto a Shimadzu Nexera XR LC system. Percentages of the parent compound remaining were calculated by comparing peak areas using the Xcalibur software (version 1.6.1, Waltham, MA, USA).

cell viability = test: MTT cell viability assay; assay type: cell-based; details: 10 μM concentration
CYP1A2 = biological target: T1, CYP1A2 (Homo sapiens, UniProt P05177); test: CYP inhibition assay, CYP1A2; assay type: in vitro ADME; details: for CYP Inhibition (% of Control) 1A2: 10 μM, CYP activity in presence of inhibitor as % of control, human liver microsomes
T1 construct: from tissue; host or cells: human liver microsomes
T1 sequence (P05177 1-516): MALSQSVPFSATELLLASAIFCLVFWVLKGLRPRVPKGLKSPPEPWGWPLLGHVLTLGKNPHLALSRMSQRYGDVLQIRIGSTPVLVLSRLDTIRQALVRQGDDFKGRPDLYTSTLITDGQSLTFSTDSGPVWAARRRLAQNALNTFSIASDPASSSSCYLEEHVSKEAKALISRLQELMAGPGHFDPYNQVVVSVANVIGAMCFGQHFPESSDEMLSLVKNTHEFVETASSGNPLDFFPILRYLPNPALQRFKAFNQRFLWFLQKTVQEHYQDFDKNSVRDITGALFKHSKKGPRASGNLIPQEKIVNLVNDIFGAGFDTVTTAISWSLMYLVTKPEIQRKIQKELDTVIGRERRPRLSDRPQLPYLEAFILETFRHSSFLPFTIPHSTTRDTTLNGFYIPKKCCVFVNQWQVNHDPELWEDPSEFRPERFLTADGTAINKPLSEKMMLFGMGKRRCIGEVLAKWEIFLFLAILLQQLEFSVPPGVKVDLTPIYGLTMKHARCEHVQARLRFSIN
Experimental: (§1) All incubations were performed in duplicate, and the mean values were used for analysis. The assays of phenacetin O-deethylase, tolbutamide 4-hydroxylase, S-mephenytoin 4-hydroxylase, dextromethorphan O-demethylase and midazolam 1′-hydroxylase activities were determined as probe activities for CYP1A2, CYP2C9, CYP2C19, CYP2D6 and CYP3A, respectively, using cocktail incubation and tandem mass spectrometry. Briefly, incubation reaction was performed with 0.25 mg/mL human liver microsomes in a final incubation volume of 100 μL. The incubation medium contained 100 mM phosphate buffer (pH 7.4) with probe substrates. The incubation mixture containing various inhibitors (10 μM) was pre-incubated for 5 min. After pre-incubation, an NADPH regenerating system was added. After incubation at 37 °C for 15 min, the reaction was stopped by placing the incubation tubes on ice and adding 40 μL of ice-cold acetonitrile. The incubation mixtures were then centrifuged at 10,000× g for 5 min at 4 °C. Aliquots of the supernatant were injected onto an LC-MS/MS system. The CYP-mediated activities in the presence of inhibitors were expressed as percentages of the corresponding control values.

[2] = tested on: IL-6-induced adhesion of U937 monocytic cells to HT-29 cells; test: IL-6-induced colonic epithelial cell adhesion assay; assay type: cell-based, human; details: Homo sapiens, Epithelial cell, 10 uM; U937 adhesion to HT-29 cells, IL-6-induced
Experimental: (§2) Synthesized mollugin derivatives were subjected to the colonic epithelial cell adhesion assay, which mimics the initial stage of colon inflammation. The inhibition of TNF-α-induced or IL-6-induced adhesion of U937 monocytic cells to HT-29 cells in 10 μM solution of synthesized molecules was measured, and the results are summarized in Table 1 and Table 2. Mesalazine (2), a commercially available medication for the treatment of IBD, and mollugin were chosen as assay positive controls.
(§3) HT-29 human colonic epithelial cells and U937 human pre-monocytic cells were grown in RPMI 1640 medium supplemented with 10% FBS, 100 IU/mL penicillin, and 100 µg/mL streptomycin in a humidified incubator under 5% CO2/95% air.
(§4) U937 monocytic cell adhesion to colonic epithelial cells was evaluated using human U937 pre-monocytic cells, which were prelabeled with 2′,7′-bis(2-carboxyethyl)-5(6)-carboxyfluorescein acetoxymethyl ester (BCECF/AM, 10 μg/mL) for 1 h at 37 °C. HT-29 cells cultured in 24-well plates were pretreated with test compound, 5-ASA, or tofacitinib for 1 h prior to incubation with TNF-α (10 ng/mL) and IL-6 (5 ng/mL) for an additional 3 h. Cells were then co-incubated with BCECF/AM-prelabeled U937 cells (1 × 10^6 cells/well) for 30 min at 37 °C. Non-adhering U937 cells were removed, and the HT-29 cells and adherent U937 cells were washed twice with PBS. Images were captured and processed with a Nikon ECLIPSE TE2000-U microscope and NIS-Elements F software (Nikon, Tokyo, Japan). For quantitative analysis, other sets of cells were lysed in 0.1% Triton X-100 in Tris (0.1 M), and the fluorescence was measured using a fluorescence-detecting microplate reader (Promega , Madison, WI, USA) at […]. Experiments were performed in triplicate and repeated at least three times independently.

CYP2C9 = biological target: T2, CYP2C9 (Homo sapiens, UniProt P11712); test: CYP inhibition assay, CYP2C9; assay type: in vitro ADME; details: for CYP Inhibition (% of Control) 2C9: 10 μM, CYP activity in presence of inhibitor as % of control, human liver microsomes
T2 construct: from tissue; host or cells: human liver microsomes
T2 sequence (P11712 whole entry): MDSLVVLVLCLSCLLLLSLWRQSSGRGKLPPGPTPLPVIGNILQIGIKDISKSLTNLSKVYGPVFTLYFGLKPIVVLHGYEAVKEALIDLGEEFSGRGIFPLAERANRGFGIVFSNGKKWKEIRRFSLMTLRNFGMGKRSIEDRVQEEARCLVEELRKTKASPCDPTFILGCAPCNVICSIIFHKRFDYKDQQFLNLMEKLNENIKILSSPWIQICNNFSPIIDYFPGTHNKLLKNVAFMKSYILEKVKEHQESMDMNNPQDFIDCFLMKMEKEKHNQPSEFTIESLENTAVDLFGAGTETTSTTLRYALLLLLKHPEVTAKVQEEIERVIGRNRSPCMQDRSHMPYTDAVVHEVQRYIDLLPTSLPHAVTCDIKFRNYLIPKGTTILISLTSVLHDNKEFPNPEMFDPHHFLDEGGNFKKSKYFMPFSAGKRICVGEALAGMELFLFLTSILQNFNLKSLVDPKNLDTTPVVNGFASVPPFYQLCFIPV
Experimental: as §1

[3] = Metabolic stability, human liver microsomes; assay type: in vitro ADME; details: 1 μM
Experimental: (§5) Pooled human liver microsomes (150 donor) and dog, rat, mouse liver microsomes were obtained from BD Gentest Co. (Woburn, MA, USA). NADPH regeneration system was obtained from Promega. S-Mephenytoin, 4-hydroxymephenytoin, and 1’-hydroxymidazolam were purchased from Ultrafine Chemical Co. (Manchester, UK). All other chemicals and solvents were of the highest grade available. The metabolic stability assay was performed by incubation of human or selected animal liver microsomes (most often dog, rat and mouse), at 37 °C with a test compound at a final concentration of 1 μM, in the presence of 0.5 mg/mL microsomal protein and NADPH regeneration system, in a total volume of 100 μL of 100 mM phosphate buffer, pH 7.4. The incubation was started by the addition of NADPH regeneration system and terminated with 40 μL of ice-cold acetonitrile at 0 and 30 min. Precipitated proteins were removed by centrifugation at 10,000× g for 5 min at 4 °C. Aliquots of the supernatant were injected onto an LC-MS/MS system. Incubations terminated prior to the addition of NADPH regeneration system (time point 0 min) were used as standards, defined as 100%. Percent of the parent compound remaining was calculated by comparing peak area.

[4] = Metabolic stability, dog liver microsomes; assay type: in vitro ADME; details: 30 min, 1 μM
Experimental: as §5

[5] = tested on: TNF-α-induced adhesion of U937 monocytic cells to HT-29 cells; test: TNF-α-induced colonic epithelial cell adhesion assay; assay type: cell-based, human; details: Homo sapiens, Epithelial cell, 10 uM; U937 adhesion to HT-29 cells, TNF-α-induced
Experimental: as §2, §3, §4

SMILES	Plasma Stability (% Remain, 2 h) Rat [1]	effect on cell viability (MTT) (cell viability)	CYP Inhibition (% of Control) 1A2 (CYP1A2)	inhibition at 15 min, 10 μM (CYP1A2; human, liver microsomes, pH 7.4, probe phenacetin (O-deethylation), at 10 μM drug concentration, read-out: % inhibition of CYP 1A2)	inhibition at 10 µM [2]	CYP Inhibition (% of Control) 2C9 (CYP2C9)	inhibition at 15 min, 10 μM (CYP2C9; human, liver microsomes, pH 7.4, probe tolbutamide (4-hydroxylation), at 10 μM drug concentration, read-out: % inhibition of CYP 2C9)	Metabolic Stability (% Remain, 30 min) Human [3]	Metabolic Stability (% Remain, 30 min) Dog [4]	inhibition at 10 µM [5]
CC1(C)C=Cc2c(C(=O)OCCN3CCOCC3)c(O)c3cc(C(F)(F)F)ccc3c2O1 [15c, 2-Morpholinoethyl 6-hydroxy-2,2-dimethyl-8-(trifluoromethyl)-2H-benzo[h]chromene-5-carboxylate]	51 % Remain	neither 6d nor 15c affects the cell viability	57 % of Control	< 50%	50.3 ± 5.7%	97 % of Control	< 50%	84 % Remain	86 % Remain	46 ± 7.6%
CC1(C)C=Cc2c(C(=O)OCCN3CCOCC3)c(O)c3ccccc3c2O1 [6d, 2-Morpholinoethyl 6-hydroxy-2,2-dimethyl-2H-benzo[h]chromene-5-carboxylate]	97 % Remain	neither 6d nor 15c affects the cell viability	58 % of Control		26.5 ± 5%	99 % of Control		83 % Remain	45 % Remain	46.3 ± 6.2%
